Measured values as given in US4812465A, “Triazole derivatives for use as antimycotic agents” (CL Pharma Aktiengesellschaft, priority 1986, dated 1989).
Converted amounts (≈) assume the structure as drawn.

Experiments:
[1] = system: Salmonella typhimurium strains TA 1535, TA 1537, TA 1538, TA 98 and TA 100; assay: Potential to cause gene mutations in Salmonella typhimurium; format: cell-based; conditions: 3.3-1,000 μg/plate
Protocol: Compound No. 96 was investigated for its potential to cause gene mutations in five Salmonella typhimurium strains TA 1535, TA 1537, TA 1538, TA 98 and TA 100.
The following concentrations were tested, both with metabolic activator (S 9 mix) and without metabolic activator.

rats [2] = assay: Determination of the lethal dose on single oral administration; format: in vivo; conditions: for LD100: oral, once
Protocol: (§1) Determination of the lethal dose of 1-(2-(2,4-dichlorophenyl)-2-(3-(4-chlorophenylthio)propylamino)ethyl)-1H-imidazole dihydrochloride (compound No. 96) in mice and rats on administration once.
(§2) In each case, oral doses of 0, 500, 1,000 and 3,000 mg/kg of body weight were administered to four groups of female and male animals.
(§3) (Control: double-distilled water)
(§4) The following clinical signs were observed.

mice [3] = assay: as above; format: in vivo; conditions: for LD100: oral, once
Protocol: as §1, §2, §3, §4

rats [4] = assay: Determination of the LD50 by i.v. administration; format: in vivo; conditions: i.v. 12.5-100 mg/kg
Protocol: (§5) Determination of the LD50 of 1-(2-(2,4-dichlorophenyl)-2-(3-(4-chlorophenylthio)propylamino)ethyl)-1H-imidazole dihydrochloride (compound No. 96) in mice and rats by i.v. administration. In each case, 0 (0.9% NaCl solution), 12.5, 25.0, 50.0 and 100 mg/kg of body weight were injected i.v. into 5 groups of female and male animals.
as §4

[5] = Determination of the LD50 by i.v. administration; format: in vivo; conditions: in vivo, iv
Protocol: as §5, §4

mice [6] = assay: Determination of the LD50 by i.v. administration; format: in vivo; conditions: i.v. 12.5-100 mg/kg
Protocol: as §5, §4

Candida albicans = assay: In vitro determination of minimum inhibitory concentration (MIC), serial dilution; format: cell-based; conditions: 336 h, pH 6, Candida albicans, pH 6.0, 22° C., 14 days, read-out: MIC C.alb
Protocol: (§6) The antimycotic activities of the compounds were measured by in vitro determination of the minimum inhibitory concentration (MIC) for yeasts, molds and dermatophytes.
(§7) 6 dermatophytes, 2 yeasts and 4 molds were used for testing with fungi, as follows:
(§8) The minimum inhibitory concentration (MIC) was determined in serial dilution tests in test tubes. The volume of the liquid nutrient medium in each test tube was 4.5 ml.
(§9) The substances were dissolved in DMSO and diluted with sterile distilled water to 10 concentrations (100, 50, 25, 12.5, 6.25, 3.12, 1.56, 0.78, 0.39 and 0.19 μg/ml). 0.5 ml of each of these dilution steps was added to liquid nutrient medium. Thus, a constant concentration of solvent in all the nutrient media was ensured, irrespective of the active compound concentration.
(§10) A comparison solution which contained only the solvent in appropriate concentration was included when carrying out each of the tests.
(§11) The individual strains were maintained on Sabouraud/beerwort agar slants and, before they were used in a test, they underwent a passage on a modified Sabouraud liquid nutrient medium. The strains were then harvested, washed and converted into a suspension of McFaerland 3 in the case of yeasts and molds and of McFaerland 4-5 in the case of dermatophytes.
(§12) The amount of material inoculated (inoculum) was 100 μl/test tube (inoculated densities: yeasts about 10^3 /ml, molds about 10^4 /ml, dermatophytes about 10^4 /ml). The pH of the liquid nutrient medium was 6.0. After inoculation had taken place the fungi were incubated at 22° C. for 14 days.
(§13) The MIC was then determined. The concentration step at which growth was no longer visible on macroscopic inspection was used for the determination of the MIC. The comparison substance used was 1-(2-(2,4-dichlorophenyl)-2-(2,4-dichlorophenylmethoxy)ethyl)-1H-imidazole(compound A).

Epidermophyton floccosum = assay: as above; format: cell-based; conditions: 336 h, pH 6, Epidermophyton floccosum, pH 6.0, 22° C., 14 days
Protocol: as §6, §7, §8, §9, §10, §11, §12, §13

[7] = system: Trichophyton mentagrophytes; assay: as above; format: cell-based; conditions: 336 h, pH 6, Trichophyton mentagrophytes, pH 6.0, 22° C., 14 days
Protocol: as §6, §7, §8, §9, §10, §11, §12, §13

Aspergillus fumigatus = assay: as above; format: cell-based; conditions: 20160 min, pH 6
Protocol: as §6, §7, §8, §9, §10, §11, §12, §13

Candida tropicalis = assay: as above; format: cell-based; conditions: 336 h, pH 6, Candida tropicalis, pH 6.0, 22° C., 14 days, read-out: MIC C.trop
Protocol: as §6, §7, §8, §9, §10, §11, §12, §13

Microsporum gypseum = assay: as above; format: cell-based; conditions: Nannizzia gypsea, 336 h, pH 6, Microsporum gypseum; pH 6.0, 22° C., 14 days; read-out: MIC Mi.gyp
Protocol: as §6, §7, §8, §9, §10, §11, §12, §13

Trichophyton verrucosum = assay: as above; format: cell-based; conditions: 336 h, pH 6, Trichophyton verrucosum, pH 6.0, 22° C., 14 days
Protocol: as §6, §7, §8, §9, §10, §11, §12, §13

Trichophyton rubrum = assay: as above; format: cell-based; conditions: 336 h, pH 6, Trichophyton rubrum, pH 6.0, 22° C., 14 days
Protocol: as §6, §7, §8, §9, §10, §11, §12, §13

Microsporum canis = assay: as above; format: cell-based; conditions: 336 h, pH 6, Microsporum canis, pH 6.0, 22° C., 14 days
Protocol: as §6, §7, §8, §9, §10, §11, §12, §13

Mucor mucedo plus = assay: as above; format: cell-based; conditions: Mucor mucedo, 336 h, pH 6, Mucor mucedo plus; pH 6.0, 22° C., 14 days
Protocol: as §6, §7, §8, §9, §10, §11, §12, §13

Absidia ramosa = assay: as above; format: cell-based; conditions: Lichtheimia ramosa, 336 h, pH 6, Absidia ramosa; pH 6.0, 22° C., 14 days
Protocol: as §6, §7, §8, §9, §10, §11, §12, §13

Mucor mucedo minus = assay: as above; format: cell-based; conditions: Mucor mucedo, 336 h, pH 6, Mucor mucedo minus; pH 6.0, 22° C., 14 days
Protocol: as §6, §7, §8, §9, §10, §11, §12, §13

[8] = oral 0, 500, 1,000 and 3,000 mg/kg

Structure (SMILES)	MIC (Candida albicans)	MIC (Epidermophyton floccosum)	MIC [7]	MIC Asp.fu. (Aspergillus fumigatus)	MIC (Candida tropicalis)	MIC (Microsporum gypseum)	MIC (Trichophyton verrucosum)	MIC (Trichophyton rubrum)	MIC (Microsporum canis)	MIC (Mucor mucedo plus)	MIC (Absidia ramosa)	MIC (Mucor mucedo minus)	other results
Cl.Cl.Clc1ccc(SCCCNC(Cn2ccnc2)c2ccc(Cl)cc2Cl)cc1 (centres unmarked) [Compound 96, 1-(2-(2,4-dichlorophenyl)-2-(3-(4-chlorophenylthio)propylamino)ethyl)-1H-imidazole dihydrochloride]	0.39 µg/mL	0.19 µg/mL	0.39 µg/mL	0,78 μg/ml	0.78 µg/mL	0.39 µg/mL	0.39 µg/mL	0.19 µg/mL	0.39 µg/mL	1.56 µg/mL	1.56 µg/mL	1.56 µg/mL	mutagenic activity ([1]; with metabolic activator (S 9 mix)): No mutagenic activity whatever was observed; mutagenic activity ([1]; without metabolic activator): No mutagenic activity whatever was observed; LD100 (rats [2]; female): > 500 mg/kg; LD100 (rats [2]; male): > 1,000 mg/kg; clinical signs (rats [2]; [8]): Inactivity, ruffled fur, convulsions; LD100 (mice [3]; female): > 1,000 mg/kg; LD100 (mice [3]; male): > 500 mg/kg; clinical signs (mice [3]; [8]): Inactivity, convulsions; clinical signs (rats [4]): Inactivity, necrotic tail, convulsions; LD50 ([5]; mouse, mice, female, range in parentheses): 84.1 mg/kg; LD50 ([5]; mouse, mice, male, range in parentheses): 42 mg/kg; LD50 ([5]; rat, rats, female, range in parentheses): 56.1 mg/kg; LD50 ([5]; rat, rats, male): 70.7 mg/kg; clinical signs (mice [6]): Inactivity, necrotic tail
CN(CCCOc1ccc(Cl)cc1)C(Cn1ccnc1)c1ccc(Cl)cc1Cl (centres unmarked) [Compound 60]	3.12 µg/mL (≈ 7.11 µM)	3.12 µg/mL (≈ 7.11 µM)	6.25 µg/mL (≈ 14.2 µM)	6,25 μg/ml	1.56 µg/mL (≈ 3.56 µM)	3.12 µg/mL (≈ 7.11 µM)	1.56 µg/mL (≈ 3.56 µM)	0.78 µg/mL (≈ 1.78 µM)	1.56 µg/mL (≈ 3.56 µM)	3.12 µg/mL	6.25 µg/mL (≈ 14.2 µM)	1.56 µg/mL (≈ 3.56 µM)	–
Clc1ccc(SCCCNC(Cn2ccnc2)c2ccc(Cl)cc2Cl)cc1 (centres unmarked) [Compound 2, 1-(2-(2,4-dichlorophenyl)-2-(3-(4-chlorophenylthio)propylamino)ethyl)-1H-imidazole]	3.12 µg/mL (≈ 7.08 µM)	6.25 µg/mL (≈ 14.2 µM)	12.5 µg/mL (≈ 28.4 µM)	3,12 μg/ml	1.56 µg/mL (≈ 3.54 µM)	3.12 µg/mL (≈ 7.08 µM)	0.39 µg/mL (≈ 0.885 µM)	0.19 µg/mL (≈ 0.431 µM)	1.56 µg/mL (≈ 3.54 µM)	12.5 µg/mL	3.12 µg/mL (≈ 7.08 µM)	25 µg/mL (≈ 56.7 µM)	–
Cc1ccc(OCCCNC(Cn2cncn2)c2ccc(Cl)cc2Cl)cc1 (centres unmarked) [Compound 52]	12.5 µg/mL (≈ 30.8 µM)	3.12 µg/mL (≈ 7.7 µM)	6.25 µg/mL (≈ 15.4 µM)	6,25 μg/ml	6.25 µg/mL (≈ 15.4 µM)	3.12 µg/mL (≈ 7.7 µM)	3.12 µg/mL (≈ 7.7 µM)	3.12 µg/mL (≈ 7.7 µM)	3.12 µg/mL (≈ 7.7 µM)	3.12 µg/mL	100 µg/mL (≈ 247 µM)	12.5 µg/mL (≈ 30.8 µM)	–
CN(CCCOc1ccc(Br)cc1)C(Cn1cncn1)c1ccc(Cl)cc1Cl (centres unmarked) [Compound 62]	6.25 µg/mL (≈ 12.9 µM)	0.78 µg/mL (≈ 1.61 µM)	1.56 µg/mL (≈ 3.22 µM)	1,56 μg/ml	3.12 µg/mL (≈ 6.44 µM)	3.12 µg/mL (≈ 6.44 µM)	1.56 µg/mL (≈ 3.22 µM)	3.12 µg/mL (≈ 6.44 µM)	3.12 µg/mL (≈ 6.44 µM)	3.12 µg/mL	50 µg/mL (≈ 103 µM)	3.12 µg/mL (≈ 6.44 µM)	–
Clc1ccc(C(Cn2ccnc2)NCCCSc2c(Cl)cccc2Cl)c(Cl)c1 (centres unmarked) [Compound 112]	6.25 µg/mL (≈ 13.2 µM)	3.12 µg/mL (≈ 6.56 µM)	3.12 µg/mL (≈ 6.56 µM)	12,5 μg/ml	6.25 µg/mL (≈ 13.2 µM)	3.12 µg/mL (≈ 6.56 µM)	3.12 µg/mL (≈ 6.56 µM)	3.12 µg/mL (≈ 6.56 µM)	12.5 µg/mL (≈ 26.3 µM)	6.25 µg/mL	12.5 µg/mL (≈ 26.3 µM)	12.5 µg/mL (≈ 26.3 µM)	–
